Results as given in patent US20150225303A1, “IRON-ESSENTIAL FOR FLORA AND FAUNA” (priority 2012, published 2015).

Tests used:
[1] = tested on: maize crop; assay: Field experiment in maize crop, foliar application; format: in vivo; conditions: for Stem girth R1 / Cobs yield R1 / No. of cobs R1 / Seed yield R1: replicate R1; for Cobs yield MEAN / No. of cobs MEAN / Seed yield MEAN / Stem girth MEAN: mean of R1-R3; for Cobs yield R3 / No. of cobs R3 / Seed yield R3 / Stem girth R3: replicate R3
Method: Field experiments in maize crop were conducted using the composition of the present invention at Maize Research Centre, Hyderabad during kharif 2009. […] GRIP (Fe HEDP)-15% […]+27% P2O5-1 g/l of water • […] of water • […] of water • T 5: Fe EDTA-12%-1 g/l of water • T 6: […] Control (Only recommended Fertilizer dose) For all the six treatments, the composition of the present invention was used along with the recommended fertilizer dose (180-60-60 kg N-P2O5-K2O/ha). The composition of the present invention (Fe-HEDP) was applied at three stages 20, 40 and 60 days after sowing. The crops were harvested in the month of November i.e. four months after sowing.

[2] = prior art statement; cited from earlier work
[3] = treatment level 2 (2 g/l of water; GRIP T2 printed as 1 g/l)

Q: Which results are given for `O=C([O-])CN(CCN(CC(=O)[O-])CC(=O)[O-])CC(=O)[O-].[Fe+3]` [Fe EDTA, Fe-Ethylene diamine tetra acetic acid]?
A: Stem girth R1 ([1]; 1 g/l of water, applied 20, 40 and 60 days after sowing): 6.6 cm; Cobs yield MEAN ([1]; 1 g/l of water): 7516.67 kg/ha; No. of cobs MEAN ([1]; 1 g/l of water): 40.17 ′000 ha; Seed yield MEAN ([1]; 1 g/l of water): 5777.67 kg/ha; Stem girth MEAN ([1]; 1 g/l of water): 6.53 cm; Cobs yield R1 ([1]; 1 g/l of water): 6205 kg/ha; No. of cobs R1 ([1]; 1 g/l of water): 38.8 ′000 ha; Seed yield R1 ([1]; 1 g/l of water): 5022.0 kg/ha; Cobs yield R3 ([1]; 1 g/l of water): 8490 kg/ha; No. of cobs R3 ([1]; 1 g/l of water): 41.2 ′000 ha; Seed yield R3 ([1]; 1 g/l of water): 6448.0 kg/ha; Stem girth R3 ([1]; 1 g/l of water): 6.6 cm; Cobs yield MEAN [1, 3]: 7875.00 kg/ha; No. of cobs MEAN [1, 3]: 37.8 ′000 ha; Seed yield MEAN [1, 3]: 5888.00 kg/ha; Stem girth MEAN [1, 3]: 6.43 cm; Cobs yield R1 [1, 3]: 6935 kg/ha; No. of cobs R1 [1, 3]: 35.6 ′000 ha; Seed yield R1 [1, 3]: 4355.0 kg/ha; Stem girth R1 [1, 3]: 6.5 cm; Cobs yield R3 [1, 3]: 8200 kg/ha; No. of cobs R3 [1, 3]: 41.0 ′000 ha; Seed yield R3 [1, 3]: 7633.0 kg/ha; Stem girth R3 [1, 3]: 6.1 cm

Q: For `O=C([O-])CN(CCN(CC(=O)[O-])CC(=O)[O-])CCN(CC(=O)[O-])CC(=O)[O-].[Fe+3]` [Fe-DTPA, Fe-Diethylene triamine penta acetic acid], which “pH level up to which the chelate is stable” value [2] is on record?
A: The value was “up to 7.0”.

Q: With `O=C([O-])C(NCCNC(C(=O)[O-])c1ccccc1[O-])c1ccccc1[O-].[Fe+3]` (centres unmarked) [Fe-EDDHA, Fe-ethylene diamine-N,N′-bis (2-hydroxyphenylacetic acid)] as the compound, how does the “pH level up to which the chelate is stable” value [2] read?
A: The value was “up to 11.0”.
